From publication PMC12073159, “Inhibition Mechanism of Mulberry Prenylated Flavonoids Sanggenone D/Kuwanon G Against α-Glucosidase and the Regulation of Glucose via GLUT4 Pathway” (Nutrients, 2025)
“Also recorded” adds a separate entry of the source.

Key:
[1] = molecular target: α-glucosidase; experiment: α-glucosidase inhibitory activity (p-NPG, absorbance at 405 nm); type: biochemical; details: 1 U/mL α-glucosidase, pH 6.8, 37 °C, p-NPG substrate; read-out: IC50 (semi-inhibitory concentration)
Protocol: Subsequently, 50 μL of 2 mmol/L p-NPG was added, and the mixture was incubated at 37 °C for 20 min. Finally, 50 μL of 1 mol/L Na2CO3 was added to an ice bath for 5 min to terminate the reaction. The absorbance was measured at 405 nm, and the α-glucosidase inhibitory activity was calculated according to Formula (1). All experiments were performed in triplicate.(1) Inhibition rate of enzyme activity/%=(1−Aa−Ab/Ac−Ad)×100%
Aa is the absorbance of the sample group, Ab is the absorbance of the sample background group (equal volume of buffer instead of enzyme solution), Ac is the absorbance of the control group (equal volume of buffer instead of the sample solution), and Ad is the absorbance of the control background group (equal volume of buffer instead of the sample and enzyme solution).

[2] = tested on: α-glucosidase; experiment: Inhibition kinetics assay (Lineweaver–Burk); type: biochemical; details: for Inhibition type: Lineweaver–Burk plots; for Ki: inhibitory constant on α-glucosidase
Protocol: The inhibition assay of α-glucosidase was adapted from MORTEZA, with some modification. A total of 50 μL of α-glucosidase solution (1 U/mL) was added to 96-well plates, and 50 μL of sample solution with different concentrations (sanggenone D: 0, 20, 100, 200 μg/mL; kuwanon G: 0, 10, 20, 40 μg/mL) was incubated at 37 °C for 10 min. Subsequently, different concentrations of pNPG solution were added and incubated at 37 °C for 20 min. Finally, sodium carbonate solution (50 μL, […]) was added to terminate the reaction. Colorimetry was performed at 405 nm using a spectrophotometer to determine the change in absorbance of the enzymatic reaction system. The reversible inhibitory effect types of sanggenone D and kuwanon G on the enzyme were analyzed by the Lineweaver–Burk equation. The relevant parameters were calculated using Formulas (2)–(4).
In the formula, V represents the reaction rate, and Vm represents the maximum reaction rate. [I] is the concentration of the compound sample, and [S] is the substrate concentration. Km represents the Michaelis constant, and KI and KIS represent the inhibitory constants of the compound sample on α-glucosidase and the α-glucosidase–substrate complex, respectively.

[3] = tested on: α-glucosidase; experiment: Fluorescence quenching spectroscopy (Stern–Volmer); type: binding
Protocol: A total of 100 μL of 1 U/mL α-glucosidase extract was mixed with […] of different concentrations (sanggenone D: 0, 1, 5, 10, 20, 50, 60 μg/mL; kuwanon G: 0, 1, 5, 10, 20, 40, 60 μg/mL) and incubated at three temperatures of 298 K, 304 K, and 310 K for 5 min. Then, the mixture were scanned with fluorescence spectroscopy (SpectraMax i3x, Molecular Devices, LLC., San Jose, CA, USA). The excitation wavelength was set at 280 nm, the emission wavelength was 300–500 nm, and the widths of both excitation and emission slits were 5 nm. The fluorescence quenching parameters were calculated according to the following equations.
Stern–Volmer dynamic collision quenching equation:(5) F0/F=1+KSVQ=1+Kqτ0Q (6) lgF0−F/F=lgKa+nlg[Q]
F0 and F represent the fluorescence intensity peaks of α-glucosidase without and with the compound, respectively; [Q] is the sample concentration; and τ0 is the protein’s average lifetime (10^−8 s).

[4] = tested on: HepG2 cells; experiment: CCK-8 toxicity test of HepG2 cells; type: cell-based, human; details: 24 h
Protocol: DMEM complete medium was configured with 88% DMEM high glucose medium, 10% fetal bovine serum, 1% double antibodies, and 1% non-essential amino acids. HepG2 cells were seeded in the complete medium and incubated at 37 °C with 5% CO2. When the cell confluence grew to 80–90%, the passage was carried out at a ratio of 1:3. According to the method of Cao et al., a hyperglycemic model was established through insulin induction. HepG2 cells in the logarithmic growth stage were inoculated with 4 × 10^4 cells per well in a 96-well plate and cultured at 37 °C and 5% carbon dioxide for 24 h. After the cell coverage reached 80%, 100 µL of sanggenone D and kuwanon G with different concentrations were added for 24 h. Then, 100 µL CCK-8/complete culture solution (1:9) was added to each well, and the absorbance at 450 nm was measured by an enzymoleter after 1 h of culture. The toxicity test was conducted in triplicate.(8) Cell survival rate (%)=Asample/Acontrol×100%

[5] = tested on: HepG2 cells; experiment: Cellular glucose, TC and TG content in high-glucose model HepG2 cells; type: cell-based, human; details: 20, 80 μg/mL, 24 h, compared with the model group
Protocol: DMEM complete medium was configured with 88% DMEM high glucose medium, 10% fetal bovine serum, 1% double antibodies, and 1% non-essential amino acids. HepG2 cells were seeded in the complete medium and incubated at 37 °C with 5% CO2. When the cell confluence grew to 80–90%, the passage was carried out at a ratio of 1:3. According to the method of Cao et al., a hyperglycemic model was established through insulin induction.
The sample concentration (sanggenone D: 20, 80 μg/mL; kuwanon G: 20, 80 μg/mL) used in this experiment was determined by a CCK8 experiment. HepG2 cells were inoculated with 2 × 10^5 in a 12-well plate and cultured for 24 h. After being attached to the well, the samples containing different concentrations were replaced and the cells were treated for 24 h. The relevant indexes were determined by the kit method according to the instructions of the manufacturer. Each measurement was performed in triplicate.

[6] = tested on: GLUT4; experiment: Western blotting, GLUT4 expression in HepG2 cells; type: cell-based, human; details: compared with the model group
Protocol: The tissue proteins were extracted with cold total protein extraction buffer (TPEB) [98% RIPA buffer (Solarbio, Beijing, China), 1% phosphatase inhibitor mix (Sangon Biotech, Shanghai, China), and 1% protease inhibitor mix (Cell Signaling Technology, Danvers, MA, USA)], and protein concentration was determined by the bicinchoninic acid assay (BCA) method. A total of 20 μg of protein samples were separated by SDS-PAGE and transferred to a polyvinylidene difluoride (PVDF) membrane. The membrane was washed with PBST for 5 min, then incubated with 5% skim milk at room temperature for 1 h. Subsequently, the membrane was cleaned with PBST five times for 5 min and incubated overnight at 4 °C with the primary antibodies [ACC (Zenbio #381131; 1:750 dilution), AMPK (Zenbio #380431; 1:500 dilution), p-AMPK (Zenbio #340763; 1:750 dilution), CPT-1 (proteintech #15184-1-AP 1:3000 dilution), and GLUT4 (Zenbio #347063; 1:1000 dilution)]. Finally, the membrane was incubated with the secondary antibody (Abmart #T40104, 1:3000 dilution) at room temperature for 1 h. Chemiluminescent visualization of the protein bands was achieved using an ECL system (Millipore, Burlington, MA, USA) and documented with Image Lab software for PC Version 6.1 (Bio-Rad, South Granville, NSW, Australia). Densitometric analysis of the resulting bands was conducted using ImageJ 2 software.

[7] = tested on: p-AMPK; experiment: Western blotting, p-AMPK in HepG2 cells; type: cell-based, human; details: compared with the model group
[8] = tested on: CPT-1; experiment: Western blotting, CPT-1 expression in HepG2 cells; type: cell-based, human
[9] = molecular target: α-glucosidase; details: cited from earlier work

Structure (SMILES)	IC50 [1] [µM]	Inhibition type [2]	Ki [2] [µM]	KSV ([3]; 298 K)	Ka ([3]; 298 K)	Kq ([3]; 298 K)	KSV ([3]; 304 K)	Ka ([3]; 304 K)	Kq ([3]; 304 K)	KSV ([3]; 310 K)	Ka ([3]; 310 K)	Kq ([3]; 310 K)	Glucose content in HepG2 cells [5]	TC content in HepG2 cells [5]	TG content in HepG2 cells [5]	GLUT4 expression [6]	Expression of CPT-1 [8]	further results
CC(C)=CCc1c(-c2ccc(O)cc2O)oc2c([C@H]3C=C(C)C[C@@H](c4ccc(O)cc4O)[C@@H]3C(=O)c3ccc(O)cc3O)c(O)cc(O)c2c1=O [kuwanon G]	38.3	competitive inhibition type	83.5	5.41 ± 0.01 ×10^4 L/mol	36.85 ± 0.17 ×10^3 L/mol	5.41 ± 0.01 ×10^12 L/mol	4.91 ± 0.03 ×10^4 L/mol	194.98 ± 0.42 ×10^3 L/mol	4.91 ± 0.03 ×10^12 L/mol	3.35 ± 0.01 ×10^4 L/mol	1984.27 ± 0.33 ×10^3 L/mol	3.35 ± 0.01 ×10^12 L/mol	significantly reduced	significantly reduced	significantly reduced	notably up-regulated	significantly upregulated	Survival percentage of HepG2 cells ([4]; concentration less than 80 μg/mL): above 90%; p-AMPK [7]: significantly promoted
COc1cc(/C=C/C(=O)O)ccc1O [ferulic acid]	–	–	–	–	–	–	–	–	–	–	–	–	–	–	–	–	–	IC50 for α-glucosidase [9]: 866 µg/mL
CC(C)=CCC12Oc3cc(O)ccc3C1(O)Oc1cc(O)c(C3C=C(C)CC(c4ccc(O)cc4O)C3C(=O)c3ccc(O)cc3O)c(O)c1C2=O (centres unmarked) [sanggenone D]	45.1	non-competition/anti-competition mixed inhibition; also recorded: mixed inhibition of noncompetitive and anticompetitive	253	3.90 ± 0.04 ×10^4 L/mol	7.28 ± 0.21 ×10^3 L/mol	3.90 ± 0.04 ×10^12 L/mol	3.24 ± 0.02 ×10^4 L/mol	16.73 ± 0.14 ×10^3 L/mol	3.24 ±0.02 ×10^12 L/mol	2.56 ± 0.02 ×10^4 L/mol	180.18 ± 0.30 ×10^3 L/mol	2.56 ±0.02 ×10^12 L/mol	significantly reduced	significantly reduced	significantly reduced	notably up-regulated	significantly upregulated	Survival percentage of HepG2 cells ([4]; concentration less than 100 μg/mL): above 90%
